Key:
[1] = system: SH-SY5Y neuronal cells expressing mutant SOD1^G93A or SOD1^G37R; experiment: Rescue of mutant SOD1-induced cell death in transfected SH-SY5Y cells; type: cell-based; settings: 4.5 × 10^4 cells/well, transfected with SOD1^G93A or SOD1^G37R, peptide 20 µM, 5 h, 24 h post-transfection, triplicates, n = 3, means ± SEM
Protocol: Figure 1 Identification of VDAC1 interacting sites in SOD1. (A) SH-SY5Y cells (4.5 × 10^4 cells/well in 24-well plates) were transfected with an empty plasmid or a plasmid encoding for mutant SOD1^G93A or SOD1^G37R. Then, 24 h post-transfection, the cells were incubated for 5 h with (10-20)N-Ter-Antp peptide (20 µM) and then analyzed for cell death. The results are from triplicates of different biological repeats (n = 3) and are presented as the means ± SEM. * p < 0.05. (B) Schematic presentation of peptide arrays and detection of VDAC1-interacting peptides. (C) Glass-bound peptide array consisting of 768 overlapping peptides derived from 19 VDAC1-interacting proteins were incubated for 4 h with purified VDAC1 (64 nM) and then blotted with anti-VDAC1 antibodies against an internal sequence (1:5000) or with antibodies against the VDAC1-N-terminus, followed by incubation with HRP-conjugated anti-mouse IgG and detection using a chemiluminescence kit. […]
SH-SY5Y and NSC-34 cells were grown at 37 °C and with 5% CO2 in Dulbecco’s modified Eagle medium (DMEM) supplemented with 10% tetracycline-free fetal bovine serum (FBS), L-Glutamine (2 mM), and penicillin (100 U/mL)/streptomycin (0.1 mg/mL). […] According to the manufacturer’s protocol, cell viability was analyzed using the CellTiter 96 AQueous one-solution cell proliferation assay (Promega) and plate reader at 490 nm.

[2] = ref [32]; cited from earlier work
Excerpt: In order to test whether a VDAC1-derived N-terminal peptide can rescue mutant SOD1 toxicity, we expressed two different SOD1 mutants (SOD1^G93A or SOD1^G37R) in SH-SY5Y neuronal cells. These expressed SOD1 mutant proteins decreased cell survival compared to control cells. […] It is important to note that in this peptide, the last six residues f ...

[3] = system: VDAC1 interaction with SOD1-derived peptides (spots 1C16 and 1C17); experiment: Inhibition of VDAC1 interaction with SOD1-derived peptides on peptide array; type: binding, rat; settings: VDAC1 64 nM pre-incubated 1 h with 160 nM SOD1 protein, then 4 h with array; for inhibition of VDAC1 interaction with 1C17 peptide: spot 1C17; for decrease of VDAC1 interaction with both SOD1-derived peptides 1C16 and 1C17: spots by Image J
Protocol: Figure 2 VDAC1 interaction with SOD1-derived peptides is reduced by WT and mutant SOD1. VDAC1 (64 nM) was pre-incubated for 1 h without (A) or with 160 nM of SOD1^WT (B), SOD1^G93A (C), or SOD1^G85R (D), followed by incubation for 4 h with the peptide array and then blotted with anti-VDAC1 antibodies, as in Figure 1C. SOD1-derived sequences are circled. […] (G) Pull down with anti-SOD1 antibody was performed by incubating recombinant VDAC1 and SOD1 proteins (2 µg each) with increasing concentrations of SOD1-derived peptide (0, 5, 15, and 30 µM). Immunoblotting was used to determine the levels of SOD1^G93A and VDAC1 in the bound and unbound fraction of each immunoprecipitation experiment. […] (H) Quantification of immunoblotting bands with ImageJ software. Quantification analysis of the relative VDAC1 intensity was performed with one-way ANOVA. Bars represent mean ± SEM. TEXT PRINTED IN THE PICTURE: (F) SOD1-derived peptide: Kd= 4 μM
Customized 768-peptide sequences derived from 19 VDAC1-interacting proteins produced by INTAVIS Peptide Services (GmbH & Co. KG, Tübingen, Germany) were arrayed on a glass slide. The interaction of purified VDAC1 with glass-bound peptide arrays (BGUN_SB-002) was assessed by slide washing with TBST buffer (150 mM NaCl, 50 mM Tris/HCl, pH 7.4, and 0.1% Tween-20), followed by overnight incubation with blocking buffer (Tris-buffered saline, pH 7.8, containing 2.5% low-fat milk, w/v) at 4 °C. Next, the peptide array glass slides were incubated with purified VDAC1 (64 nM) in 400 µL of protein-interacting buffer (20 mM HEPES, 100 mM KCl, pH,7.4, PBS) at room temperature for 4 h in a humidified chamber. Then, the peptide array glass slides were washed (three times, 10 min each) with TBST and incubated overnight at 4 °C with anti-VDAC1 antibody against an internal sequence (ab15895) or against the N-terminus (ab154856) (1:5000). The peptide array glass slides were washed with 0.1% Tween-20 in TBS buffer/Tris-buffered saline (150 mM NaCl, 50 mM Tris/HCl, pH 7.4 TBST), followed by incubation for 2 h at RT with HRP-conjugated anti-mouse or anti-rabbit (1:10,000) or anti-goat (1:20,000) IgG as a secondary antibody. Enhanced chemiluminescent substrate (Pierce Chemical, Rockford, IL, USA) was used to detect HRP. The signal was captured in the dark using FUSION-FX (Vilber Lourmat) software.
The VDAC1 protein was purified from rat liver mitochondria, as previously described. Briefly, rat liver mitochondria (5 mg/mL) in 10 mM Tris-HCl, pH 7.2, were incubated with 2% LDAO on ice for 20 min, followed by centrifugation (30 min, 14,000× g), and the obtained supernatant was loaded onto a dry celite:hydroxyapatite (2:1) column. VDAC1 was eluted with a solution containing 2% LDAO, 10 mM Tris-HCl, pH 7.2, 50 mM NaCl, and 22 mM NaH2PO4. The VDAC1-containing fractions were dialyzed against 10 mM Tris-HCl, pH 7.2, and subjected to a second chromatography step on a carboxymethyl-cellulose (CMC) column from which VDAC1 was eluted with a solution containing 10 mM Tris-HCl, pH 7.2, 0.3% LDAO, and 500 mM NaCl. The VDAC1-containing fractions were collected and used for VDAC1 channel conductance and microscale thermophoresis (MST) assays.
Recombinant SOD1^WT, SOD1^G93A, and SOD1^G85R were purified as previously described. Briefly, the proteins were expressed as 6His-tagged (N-term) soluble proteins in BL21 cells, and the expression of the recombinant proteins was induced by addition of 0.5 mM IPTG, following purification using a 5mL HisTrap FF column (GE Healthcare, Chicago, IL, USA). The peak fractions were dialyzed overnight at 4 °C against a storage buffer (50 mM Na^+/phosphate, pH 7.6, 0.1 M NaCl, and 10% glycerol), concentrated by ultrafiltration (10 kDa cutoff, Millipore, USA), centrifuged at 110,000× g at 4 °C for 1 h using ultracentrifuge (Sorvall M120 Discovery, Waltham, MA, USA), and stored at −20 °C until use. […]

Row | Substance | rescue of mutant SOD1-induced toxicity (cell survival) [1] | cell death activity [2] | inhibition of VDAC1 interaction with 1C17 peptide [3] | decrease of VDAC1 interaction with both SOD1-derived peptides 1C16 and 1C17 [3] | inhibition of VDAC1 interaction with 1C16 peptide ([3]; spot 1C16)
1 | 1-MAVPPTYADLGKSARDVFTK-20-RQIKIWFQNRRMKWKK [(10–20)-N-Ter-Antp, VDAC1-N-terminus-derived peptide] | rescued mutant SOD1-induced toxicity increasing SH-SY5Y cell survival | lost its cell death activity | – | – | –
2 | SOD1^G85R: recombinant dismutase inactive SOD1 mutant, 6His-tagged (N-term) | – | – | at a similar level | decreased the VDAC1 interaction with both SOD1-derived peptides | –
3 | SOD1^G93A: recombinant dismutase active SOD1 mutant, 6His-tagged (N-term) | – | – | at a similar level | decreased the VDAC1 interaction with both SOD1-derived peptides | prevented the interaction of VDAC1 with the 1C16 peptide better than SOD1^WT and SOD1^G85R
4 | SOD1^WT: recombinant wild type SOD1, 6His-tagged (N-term) | – | – | at a similar level | decreased the VDAC1 interaction with both SOD1-derived peptides | –
